Literature values, collected in paper PMC12281572.
Several values for one entry are separate records, joined by “and”; a condition that tells them apart may be missing. Equal entries are not always repeated.

assay: FTIR, 4-fluorophenol as donor (the pK_BHX database, per the paper); details: CCl4; 25 C

| SMILES | pK_BHX (log10 Kf of the 1:1 H-bond complex with 4-fluorophenol, by FTIR) |
| --- | --- |
| CNC(=Nc1ccccc1)c1ccccc1 | 1.83 log units |
| O=CN(c1ccccc1)c1ccccc1 | 1.41 log units |
| [O-][n+]1ccc(Cl)cc1 | 2.44 log units |
| CN1CN(C)CN(C)C1 | 1.58 log units |
| CCN(C)C | 2.17 log units |
| CN(C)C=Nc1ccccc1 | 1.9 log units |
| CC(C)(C)OC(C)(C)C | 0.75 log units |
| CN(C)C(=O)C(F)(F)F | 1.04 log units |
| CCCCNCCCC | 2.11 log units |
| Nc1ccccn1 | 2.12 log units |
| N#Cc1ccccc1Br | 0.71 log units |
| CCOC(=O)c1ccc(OC)cc1 | 1.13 log units |
| CC(=Nc1ccc(C)cc1)N(C)c1ccccc1 | 1.75 log units |
| CCN(CC)C(=O)c1cccnc1 | 1.98 log units and 1.63 log units |
| CN(C)C=Nc1ccc(F)cc1 | 1.8 log units |
| COc1cccc(C)c1 | 0.05 log units |
| CN(C)C(=S)Cl | 0.5 log units |
| O=c1ccocc1 | 2.03 log units |
| CC(=O)c1ccc(C(C)=O)cc1 | 0.92 log units |
| CCCO | 1.0 log units |
| FC(F)(F)c1cccc(C2=NCCC2)c1 | 1.52 log units |
| Nc1cccc(F)c1 | 0.2 log units |
| Cc1ccc(NC(=Nc2ccccc2)c2ccccc2)cc1 | 1.47 log units |

| SMILES | pK_BHX (log10 Kf of the 1:1 H-bond complex with 4-fluorophenol, by FTIR) |
| --- | --- |
| C1=CCCCC1 | -0.82 log units |
| Brc1ccccn1 | 1.03 log units |
| Cc1ccncc1 | 2.07 log units |
| CNC1CCCCC1 | 2.24 log units |
| C=CCN(C)C | 1.92 log units |
| C#CCN | 1.56 log units |
| C1CCC2OC2C1 (stereo not shown) | 1.13 log units |
| Cc1cnc(C)cn1 | 1.29 log units |
| N#Cc1ccccc1 | 0.8 log units |
| O=C1c2ccccc2-c2ccccc21 | 1.09 log units |
| CCC(C)(C)N=CN(C)C | 2.26 log units |
| IC12CC3CC(CC(C3)C1)C2 | -0.19 log units |
| Cc1cc(C)c(C)c(C)c1C | -0.07 log units |
| CCOS(=O)OCC | 1.07 log units |
| c1ccc2scnc2c1 | 1.29 log units |
| CC(=O)c1ccc(N(C)C)cc1 | 1.76 log units |
| CC(=O)c1ccc(N=CN(C)C)cc1 | 1.7 log units and 1.52 log units |
| CN(C)C=NC1CCCCC1 | 2.59 log units |
| COc1ccc(C#N)cc1 | 0.97 log units |
| FC12CC3CC(C1)CC(F)(C3)C2 | 0.0 log units |
| Cc1cc(C)nc(C)c1 | 2.29 log units |
| CN1CC=CCC1 | 2.02 log units |
| CC(=O)c1ccc(C)cc1 | 1.24 log units |

| SMILES | pK_BHX (log10 Kf of the 1:1 H-bond complex with 4-fluorophenol, by FTIR) |
| --- | --- |
| CCOC(=O)c1cccc(C)c1 | 1.01 log units |
| C1CSCCS1 | -0.14 log units |
| CNCCC#N | 1.37 log units |
| CNCCNC | 2.29 log units |
| CCOC(=O)c1ccc(F)cc1 | 0.88 log units |
| CC(=Nc1cccc(Cl)c1)N(C)c1ccccc1 | 1.24 log units |
| CC(C)(C)C(=O)N(c1ccccc1)c1ccccc1 | 1.64 log units |
| CCN(CC(=O)N(CC)c1ccccc1)c1ccccc1 | 2.16 log units |
| CN(C)C(=O)c1ccc([N+](=O)[O-])cc1 | 1.9 log units |
| Ic1ccccc1 | -0.64 log units |
| C1COC1 | 1.36 log units |
| NC12CC3CC(CC(C3)C1)C2 | 2.3 log units |
| Cn1cccc1 | 0.23 log units |
| Cc1ccc(C)c(C)c1C | -0.14 log units |
| CCOC(=O)c1ccc(C#N)cc1 | 0.66 log units and 0.53 log units |
| CC(=O)Nc1ccccc1 | 1.69 log units |
| COCCOC | 1.02 log units |
| CCCCCCCCN(CCCCCCCC)CCCCCCCC | 1.57 log units |
| Cc1cccc(C)c1C#N | 0.86 log units |
| O=CN1CCOCC1 | 1.93 log units |
| CCN(CC)C(=S)N(C)C | 1.29 log units |
| CCCCCl | -0.41 log units |
| COC(OC)OC | 0.55 log units |

| SMILES | pK_BHX (log10 Kf of the 1:1 H-bond complex with 4-fluorophenol, by FTIR) |
| --- | --- |
| CC(C)(C)N=Cc1ccccc1 | 1.29 log units |
| CC(=Nc1ccc(Br)cc1)N(C)c1ccc(C)cc1 | 1.43 log units |
| O=C1CCCCCC1 | 1.41 log units |
| ClCCCCCl | -0.47 log units |
| C1COCCOCCOCCO1 | 1.13 log units |
| Cc1ccc(S(=O)c2ccc(C)cc2)cc1 | 2.21 log units |
| CN(C)C(=S)c1ccccc1 | 1.02 log units |
| c1ccncc1 | 1.86 log units |
| NCc1cccc([N+](=O)[O-])c1 | 1.26 log units |
| CCN(C=O)CC | 2.16 log units |
| CN=C(c1ccc([N+](=O)[O-])cc1)N(C)C | 1.99 log units |
| CN(C)C1=CC(=O)CC(C)(C)C1 | 2.92 log units |
| CCCN(CCC)CCC | 1.47 log units |
| CN1CCN(C)C1=S | 1.32 log units |
| C1C2CC3CC1CC(C2)C31OC12C1CC3CC(C1)CC2C3 (stereo not shown) | 1.44 log units |
| COC(=O)OC | 0.82 log units |
| CN(C)C=Nc1ccc(C(F)(F)F)cc1 | 1.43 log units |
| CN(C)S(=O)(=O)c1ccccc1 | 0.89 log units |
| CN(C)C=NCc1ccc(Cl)cc1 | 2.12 log units |
| C1C2CC3CC1CC(C2)C3C1OC1C1C2CC3CC(C2)CC1C3 (stereo not shown) | 1.44 log units |
| CCOC(=O)C(=O)OCC | 0.65 log units |
| O=c1cccccc1 | 1.97 log units |
| C#CCN=CN(C)C | 2.3 log units |

| SMILES | pK_BHX (log10 Kf of the 1:1 H-bond complex with 4-fluorophenol, by FTIR) |
| --- | --- |
| C#CCCCC | -0.22 log units |
| FC1C2CC3CC(C2)CC1C3 (stereo not shown) | -0.02 log units |
| C=CCNC | 2.0 log units |
| CCOC(=O)C1CC1 | 1.12 log units |
| Cc1ccnc(C)c1 | 2.21 log units |
| Brc1ccccc1 | -0.66 log units and -0.92 log units |
| CC(C)(C)OC(=O)c1ccccc1 | 0.97 log units |
| Brc1ccc(N=C(Nc2ccc(Br)cc2)c2ccccc2)cc1 | 0.87 log units |
| CN(C)C(=O)CCl | 1.74 log units |
| O=C1CCC1 | 1.0 log units |
| CNC(C)C | 2.2 log units |
| CN(C)C=NC1CC1 | 2.36 log units |
| NC1CCCCC1 | 2.29 log units |
| CN1CCCC1 | 2.19 log units |
| CSCSC | -0.22 log units |
| N#Cc1ccc(F)cc1 | 0.72 log units |
| CC(=Nc1ccc(Br)cc1)Nc1ccc(C)cc1 | 1.58 log units |
| FCCCF | -0.27 log units |
| CN(C)c1cccc2cccc(N(C)C)c12 | -0.24 log units |
| O=c1occo1 | 0.69 log units |
| Cc1ccccc1C#N | 0.83 log units |
| Cc1ccc(C)cc1 | -0.29 log units |
| CN(C)C=NC12CC3CC(CC(C3)C1)C2 | 2.52 log units |
